Results published in EPA's ToxRefDB 2.

Assays:
[1] = tested on: rat; settings: Prenatal developmental toxicity study, sprague dawley, Oral, Gavage/Intubation, dose end: 19 GD
[2] = tested on: mouse; settings: Subchronic oral toxicity in rodents, cd1, Feed, dose end: 13 week, group: systemic
[3] = tested on: rat; settings: Subchronic oral toxicity in rodents, sprague dawley, Feed, dose end: 13 week, group: systemic
[4] = tested on: rat; settings: Combined chronic toxicity/carcinogenicity; sprague dawley; Oral; Feed; dose end: 104 week; group: systemic; systemic / clinical chemistry / alanine aminotransferase (alt/sgpt) / alanine aminotransferase (alt/sgpt) + systemic / clinical chemistry / …
[5] = tested on: dog; settings: Chronic toxicity, beagle, Oral, Feed, dose end: 52 week, group: systemic
[6] = tested on: mouse; settings: Carcinogenicity; cd1; Oral; Feed; dose end: 78 week; group: systemic; systemic / organ weight / liver / nos + systemic / organ weight / liver / relative to body weight + systemic / pathology microscopic / liver…
[7] = tested on: rat; settings: Multigenerational reproductive toxicity study, Charles River CD, Oral, Feed, dose end: 2 generation
[8] = group: developmental, developmental / developmental malformation / bone / bent + developmental / developmental malformation / bone / incomplete ossification + …
[9] = group: maternal, systemic / in life observation / body weight / body weight gain + systemic / in life observation / clinical signs / lethargy + systemic / in…
[10] = systemic / clinical chemistry / alanine aminotransferase (alt/sgpt) / alanine aminotransferase (alt/sgpt) + systemic / clinical chemistry / …
[11] = systemic / pathology microscopic / liver / [other] + systemic / pathology microscopic / liver / hematopoietic cell proliferation + systemic…
[12] = systemic / hematology / erythrocyte (rbc) count differential / erythrocyte (rbc)
[13] = systemic / organ weight / adrenal gland / absolute + systemic / organ weight / heart / absolute + systemic / organ weight / spleen / …
[14] = group: offspring, systemic / in life observation / body weight / offspring (pup) weight + systemic / organ weight / liver / absolute + systemic / organ weight…
[15] = group: parental, systemic / organ weight / spleen / relative to body weight
[16] = group: reproductive, reproductive / reproductive performance / fertility / fertility
[17] = group: reproductive, reproductive / reproductive performance / fertility / fertility + reproductive / offspring survival early / birth index / live birth index

CCOC(=O)C(C)OC(=O)c1cc(Oc2ccc(C(F)(F)F)cc2Cl)ccc1[N+](=O)[O-] (stereo not given) [Lactofen]
LEL [1, 8]: 150 mg/kg/day
LOAEL [1, 8]: 150 mg/kg/day
NEL [1, 8]: 50 mg/kg/day
NOAEL [1, 8]: 50 mg/kg/day
LEL [1, 9]: 150 mg/kg/day
LOAEL [1, 9]: 150 mg/kg/day
NEL [1, 9]: 50 mg/kg/day
NOAEL [1, 9]: 50 mg/kg/day
LOAEL [2, 10]: 143 mg/kg/day
NOAEL [2, 10]: 28.6 mg/kg/day
LEL [2, 11]: 5.7 mg/kg/day
NEL [2, 11]: < 5.7 mg/kg/day
LOAEL [3, 10]: 73.7 mg/kg/day
NOAEL [3, 10]: 14.1 mg/kg/day
LEL [3, 12]: 2.9 mg/kg/day
NEL [3, 12]: < 2.9 mg/kg/day
LEL [4]: 19 mg/kg/day
LOAEL [4]: 19 mg/kg/day
NEL [4]: 2 mg/kg/day
NOAEL [4]: 2 mg/kg/day
LEL [5, 13]: 0.79 mg/kg/day
NEL [5, 13]: < 0.79 mg/kg/day
NOAEL [5, 13]: 0.79 mg/kg/day
LOAEL ([5]; systemic / organ weight / adrenal gland / absolute + systemic / organ weight / thyroid gland / absolute): 3.96 mg/kg/day
LEL [6]: 1.4 mg/kg/day
LOAEL [6]: 1.4 mg/kg/day
NEL [6]: < 1.4 mg/kg/day
NOAEL [6]: < 1.4 mg/kg/day
LEL [7, 14]: 26.7 mg/kg/day
LOAEL [7, 14]: 26.7 mg/kg/day
NEL [7, 14]: 2.7 mg/kg/day
NOAEL [7, 14]: 2.7 mg/kg/day
LOAEL ([7]; group: parental, systemic / in life observation / mortality / mortality): 32.9 mg/kg/day
NOAEL ([7]; group: parental, systemic / in life observation / mortality / mortality + systemic / in life observation / body weight / body weight + systemic / organ …): 3.3 mg/kg/day
LEL [7, 15]: 3.3 mg/kg/day
NEL [7, 15]: < 3.3 mg/kg/day
LEL [7, 16]: 26.7 mg/kg/day
LOAEL [7, 16]: 26.7 mg/kg/day
NEL [7, 17]: 2.7 mg/kg/day
NOAEL [7, 17]: 2.7 mg/kg/day
